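Cells were grown in 96-well plates and exposed to each compound for 48 hours at five concentrations; endpoints were interpolated linearly between bracketing concentrations, or set to the highest concentration if not reached. GI50 = concentration required for 50% inhibition of growth.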 Calls of active or inactive are those of the source. Cut-off read from the data, not from the text of the source: active = GI50 up to about 1.1 µM and inactive = higher.
Tests used:
Test in all cases: NCI-60 cell line screen, 48 h
M19-MEL = system: M19-MEL
XF498 = system: XF498
LXFL 529 = system: LXFL 529
DMS-273 = system: DMS-273
DLD-1 = system: DLD-1
SNB-78 = system: SNB-78
DMS-114 = system: DMS-114
RXF 631 = system: RXF 631
HOP-18 = system: HOP-18

Measured: GI50

CC(=O)CC(N)=O
inactive: M19-MEL > 100 µM | XF498 > 100 µM | LXFL 529 > 100 µM | DMS-273 > 100 µM | DLD-1 > 100 µM | SNB-78 > 100 µM | DMS-114 > 100 µM | RXF 631 > 100 µM | HOP-18 > 100 µM

CC1=C(NC(=O)/C(=N/NC(=S)NN)C2C(=O)CC(C)(C)CC2=O)C(=O)c2ccccc2C1=O
inactive: M19-MEL 1.33 µM | XF498 14.9 µM | LXFL 529 11.4 µM | DMS-273 6.21 µM | DLD-1 4.48 µM | SNB-78 15.2 µM | DMS-114 2.12 µM | RXF 631 7.8 µM | HOP-18 15.7 µM

O=S(O)CCCCCSSCCCCSSCCCCCS(=O)O
inactive: M19-MEL > 100 µM | XF498 46.8 µM | LXFL 529 79.6 µM | DMS-273 > 100 µM | DLD-1 > 100 µM | SNB-78 > 100 µM | DMS-114 > 100 µM | RXF 631 > 100 µM | HOP-18 > 100 µM

O=C1c2ccccc2C(=O)C12CCc1ccccc12
inactive: M19-MEL > 100 µM | XF498 > 100 µM | LXFL 529 > 100 µM | DMS-273 > 100 µM | DLD-1 > 100 µM | SNB-78 > 100 µM | DMS-114 > 100 µM | RXF 631 > 100 µM | HOP-18 > 100 µM
